The target in the experiment is T1, Sirt6 (Homo sapiens, UniProt Q8N6T7).
T1 construct: purchased CycLex CY-1156V2
The experiment in a line: Measurement of Sirt6 Activity (CycLex Sirt6 Deacetylase Fluorometric Assay Kit). To be noted: compound at 10 μM; fluorescence relative to the group without compound treatment (positive control group). Format: biochemical. A digest of the protocol:
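Recombinant Sirt6 with fluoro-labelled acetyl-lysine peptide, NAD and lysylendopeptidase developer, compound added from 10× stock in PBS; 1 h at room temperature. Fluorescence read at ex 490/em 530 nm; activation expressed as fluorescence ratio relative to enzyme without compound.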

Molecules are shown by their SMILES.

T1 sequence (Q8N6T7 whole entry): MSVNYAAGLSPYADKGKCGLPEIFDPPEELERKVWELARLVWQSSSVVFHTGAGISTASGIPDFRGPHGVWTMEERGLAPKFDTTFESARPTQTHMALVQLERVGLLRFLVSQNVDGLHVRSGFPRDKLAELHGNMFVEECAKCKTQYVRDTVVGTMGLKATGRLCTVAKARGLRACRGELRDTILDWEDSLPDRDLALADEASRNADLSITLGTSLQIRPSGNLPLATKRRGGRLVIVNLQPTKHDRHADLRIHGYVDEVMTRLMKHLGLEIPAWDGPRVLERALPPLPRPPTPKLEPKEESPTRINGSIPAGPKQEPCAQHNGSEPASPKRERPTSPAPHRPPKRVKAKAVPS

As for `O=c1c2ccccc2c(-c2cccc(S(=O)(=O)NCCO)c2)nn1-c1ccc(F)cc1F` [Example 127, 3-(3-(2,4-Difluorophenyl)-4-oxo-3,4-dihydrophthalazin-1-yl)-N-(2-hydroxyethyl)benzene Sulfonamide], the “Sirt6 Activity (% activity, 10 μM)” value was 321 % activity.

Take `CN(C)S(=O)(=O)c1cccc(-c2nn(-c3c(F)cccc3F)c(=O)c3ccccc23)c1` [Example 109, 3-(3-(2,6-Difluorophenyl)-4-oxo-3,4-dihydrophthalazin-1-yl)-N,N-dimethylbenzenesulfonamide]: the “Sirt6 Activity (% activity, 10 μM)” value is given as 188 % activity. As to `CCN(C)S(=O)(=O)c1cccc(-c2nn(-c3ccc(F)cc3F)c(=O)c3ccccc23)c1` [Example 216, 3-(3-(2,4-Difluorophenyl)-4-oxo-3,4-dihydrophthalazin-1-yl)-N-ethyl-N-methylbenzenesulfonamide], the “Sirt6 Activity (% activity, 10 μM)” value came out at 184.80 % activity. With `Cl.N[C@@H]1CCCCN(c2nn(-c3ccc(Cl)cc3)c(=O)c3ccccc23)C1` [Example 185, (R)-4-(3-Aminoazepan-1-yl)-2-(4-chlorophenyl)phthalazin-1(2H)-one-hydrochloride] the figure was 273.80 % activity; with `O=c1c2ccccc2c(-c2ccc[n+]([O-])c2)nn1-c1c(F)cccc1F` [Example 118, 3-(3-(2,6-Difluorophenyl)-4-oxo-3,4-dihydrophthalazin-1-yl)pyridine 1-oxide], 231 % activity; with `CCS(=O)(=O)Nc1cccc(-c2nn(-c3cnn(C)c3)c(=O)c3ccccc23)c1` [Example 133, N-(3-(3-(1-Methyl-1H-pyrazol-4-yl)-4-oxo-3,4-dihydrophthalazin-1-yl)phenyl)ethanesulfonamide], 118.8 % activity. With `CC(C)/[N+]([O-])=C/c1cccc(-c2nn(-c3c(F)cccc3F)c(=O)c3ccccc23)c1` [Example 103, (Z)-1-(3-(3-(2,6-Difluorophenyl)-4-oxo-3,4-dihydrophthalazin-1-yl)phenyl)-N-isopropylmethanimine Oxide] the figure was 324 % activity; with `CCS(=O)(=O)NC1CCCCN(c2nn(C3CCCCC3)c(=O)c3ccccc23)C1` (stereo not drawn) [Example 144, N-(1-(3-Cyclohexyl-4-oxo-3,4-dihydrophthalazin-1-yl)azepan-3-yl)ethanesulfonamide], 164.1 % activity. Consider `COc1ccc(-c2nn(-c3ccc(F)cc3)c(=O)c3ccccc23)cc1/C=[N+](\[O-])C(C)(C)C` [Example 49, (Z)—N-tert-Butyl-1-(5-(3-(4-fluorophenyl)-4-oxo-3,4-dihydrophthalazin-1-yl)-2-methoxyphenyl)methan Imine Oxide], for which the “Sirt6 Activity (% activity, 10 μM)” value is 107 % activity. Regarding `CC(C)(C(=O)Nc1ccccc1)c1cccc(-c2nn(-c3ccc(F)cc3F)c(=O)c3ccccc23)c1` [Example 181, 2-(3-(3-(2,4-difluorophenyl)-4-oxo-3,4-dihydrophthalazin-1-yl)phenyl)-2-methyl-N-phenylpropanamide], the “Sirt6 Activity (% activity, 10 μM)” value was found to be 122.10 % activity. The result for `O=C(O)C1(c2cccc(-c3nn(-c4ccc(F)cc4F)c(=O)c4ccccc34)c2)CC1` [Example 183, 1-(3-(3-(2,4-Difluorophenyl)-4-oxo-3,4-dihydrophthalazin-1-yl)phenyl)cyclopropan-1-carboxylic Acid] reads 194.70 % activity; that for `O=c1c2ccccc2c(-c2cccnc2)nn1-c1ccc(F)cc1F` [Example 115, 2-(2,4-Difluorophenyl)-4-(pyridin-3-yl)phthalazin-1(2H)-one], 405 % activity. With `CN(c1cccc(-c2nn(-c3ccccc3)c(=O)c3ccccc23)c1)S(C)(=O)=O` [Example 7, N-Methyl-N-(3-(4-oxo-3-phenyl-3,4-dihydro-phthalazin-1-yl)phenyl)methanesulfonamide], the “Sirt6 Activity (% activity, 10 μM)” value came out at 173 % activity. The result for `CC(C)(C)/[N+]([O-])=C/c1cccc(-c2nn(-c3ccccc3F)c(=O)c3ccccc23)c1` [Example 96, (Z)—N-tert-Butyl-1-(3-(3-(2-fluorophenyl)-4-oxo-3,4-dihydrophthalazin-1-yl)phenyl)methanimine Oxide] reads 176 % activity; that for `CCS(=O)(=O)Nc1cccc(-c2nn(Cc3ccccc3)c(=O)c3ccccc23)c1` [Example 61, N-(3-(3-Benzyl-4-oxo-3,4-dihydrophthalazin-1-yl)phenyl)ethanesulfonamide], 104 % activity; that for `CC(C)(C)/[N+]([O-])=C/c1ccc(-c2nn(-c3ccc(F)cc3)c(=O)c3ccccc23)s1` [Example 47, (Z)—N-tert-Butyl-1-(5-(3-(4-fluorophenyl)-4-oxo-3,4-dihydrophthalazin-1-yl)thiophen-2-yl)methanimine Oxide], 132 % activity. With `C/[N+]([O-])=C/c1cccc(-c2nn(-c3ccc(-c4ccccc4)cc3)c(=O)c3ccccc23)c1` [Example 84, (Z)-1-(3-(3-([1,1′-Biphenyl]-4-yl)-4-oxo-3,4-dihydrophthalazin-1-yl)phenyl)-N-methylmethanimine Oxide], the “Sirt6 Activity (% activity, 10 μM)” value is reported as 123 % activity. With `C/[N+]([O-])=C/c1cccc(-c2nn(-c3ccccc3F)c(=O)c3ccccc23)c1` [Example 94, (Z)-1-(3-(3-(2-Fluorophenyl)-4-oxo-3,4-dihydrophthalazin-1-yl)phenyl)-N-methyl Methanimine Oxide] the figure was 272 % activity. For the compound `CCNS(=O)(=O)c1cccc(-c2nn(-c3ccccc3F)c(=O)c3ccccc23)c1` [Example 100, N-Ethyl-3-(3-(2-fluorophenyl)-4-oxo-3,4-dihydrophthalazin-1-yl)benzenesulfonamide], the “Sirt6 Activity (% activity, 10 μM)” value stood at 196 % activity. With `CCS(=O)(=O)Nc1cccc(-c2nn(-c3cccc(F)c3)c(=O)c3ccccc23)c1` [Example 30, N-(3-(3-(3-Fluorophenyl)-4-oxo-3,4-dihydrophthalazin-1-yl)phenyl)ethanesulfonamide] the figure was 117 % activity. The result for `CC(C)(C(=O)NC1CCCCC1)c1cccc(-c2nn(-c3ccc(F)cc3F)c(=O)c3ccccc23)c1` [Example 180, N-Cyclohexyl-2-(3-(3-(2,4-difluorophenyl)-4-oxo-3,4-dihydrophthalazin-1-yl)phenyl)-2-methylpropanamide] reads 133.30 % activity; that for `CN(C)S(=O)(=O)Nc1cccc(-c2nn(-c3ccc(F)cc3)c(=O)c3ccccc23)c1` [Example 12, N-(3-(3-(4-Fluorophenyl)-4-oxo-3,4-dihydrophthalazin-1-yl)phenyl)dimethylsulfamoylamide], 189 % activity; that for `Nc1cccc(-c2nn(-c3ccc(F)cc3)c(=O)c3ccccc23)c1` [Example 60, 4-(3-Aminophenyl)-2-(4-fluorophenyl) phthalazin-1(2H)-one], 176 % activity. Regarding `NC(=O)C1(c2cccc(-c3nn(-c4ccc(Cl)cc4)c(=O)c4ccccc34)c2)CC1` [Example 198, 1-(3-(3-(4-Chlorophenyl)-4-oxo-3,4-dihydrophthalazin-1-yl)phenyl)cyclopropan-1-carboxyamide], the “Sirt6 Activity (% activity, 10 μM)” value is reported as 225.40 % activity.

Values taken from patent US20220235011A1, “PHTHALAZINONE COMPOUNDS AND USE THEREOF” (ST PHARM CO., LTD., priority 2019, published 2022).
